# Measured values reported in patent US20240390340A1 (INCYTE CORPORATION, priority 2023, published 2024).
# System: KRAS
# Test: KRAS inhibition, assay not specified (at least one assay described herein)
# Details: Peak 1 versus Peak 2 of prep. LCMS; assay not stated
row,Compound,potency of the separated diastereoisomer (atropisomer) in words
1,"Cc1nc2c(F)c(-c3cccc(Cl)c3Cl)c(CCC#N)cc2c2c1cc([C@H]1C[C@](C)(OCc3ccccc3)CN1C(=O)C1CC1)n2[C@H]1[C@H]2CN[C@@H]1C2 (single isomer, unassigned) [Example 81, Diastereomer 1 (Peak 1)]",potent
2,"C[C@@H](O)c1nc2c(F)c(-c3cccc(Cl)c3Cl)c(CCC#N)cc2c2c1cc([C@H]1C[C@H](Oc3cc(C4CC4)on3)CN1C(=O)C1CC1)n2[C@H]1[C@H]2CN[C@@H]1C2 (single isomer, unassigned) [Example 77, Diastereomer 1 (Peak 1)]",potent
3,"COc1cc(O[C@H]2C[C@H](c3cc4c([C@@H](C)O)nc5c(F)c(-c6cccc(Cl)c6Cl)c(CCC#N)cc5c4n3[C@H]3[C@H]4CN[C@@H]3C4)N(C(=O)C3(C)CC3)[C@@H]2C)c(F)cn1 (single isomer, unassigned) [Example 52, Diastereomer 1 (Peak 1)]",potent
4,"COc1ncccc1O[C@H]1C[C@H](c2cc3c(C)nc4c(F)c(-c5cccc(Cl)c5Cl)c(CCC#N)cc4c3n2[C@H]2[C@H]3CN[C@@H]2C3)N(C(=O)C2CC2)C1 (single isomer, unassigned) [Example 1, Diastereomer 1 (Peak 1)]",potent
5,"COc1cc(O[C@H]2C[C@H](c3cc4c(C(C)O)nc5c(F)c(-c6cccc(Cl)c6Cl)c(CCC#N)cc5c4n3[C@H]3[C@H]4CN[C@@H]3C4)N(C(=O)C3CC3)C2)ccn1 (single isomer, unassigned) [Example 2, Diastereomer 1 (Peak 1)]",potent
6,"COc1ccc(O[C@H]2C[C@H](c3cc4c([C@@H](C)O)nc5c(F)c(-c6cccc(Cl)c6Cl)c(CCC#N)cc5c4n3[C@H]3[C@H]4CN[C@@H]3C4)N(C(=O)C3CC3)C2)cn1 (single isomer, unassigned) [Example 76, Diastereomer 1 (Peak 1)]",potent
7,"Cc1nc2c(F)c(-c3cccc(Cl)c3Cl)c(CCC#N)cc2c2c1cc([C@H]1C[C@H](n3cc(C(C)(C)C)nn3)CN1C(=O)C1CC1)n2[C@H]1[C@H]2CN[C@@H]1C2 (single isomer, unassigned) [Example 4, Diastereomer 1 (Peak 1)]",potent
8,"Cc1cc(F)cc(O[C@H]2C[C@H](c3cc4c([C@@H](C)O)nc5c(F)c(-c6cccc(Cl)c6Cl)c(CCC#N)cc5c4n3[C@H]3[C@H]4CN[C@@H]3C4)N(C(=O)C3CC3)C2)n1 (single isomer, unassigned) [Example 62, Diastereomer 1 (Peak 1)]",potent
9,"COC[C@@H]1[C@@H](Oc2cc(OC)ncc2F)C[C@H](c2cc3c([C@@H](C)O)nc4c(F)c(-c5cccc(Cl)c5Cl)c(CCC#N)cc4c3n2[C@H]2[C@H]3CN[C@@H]2C3)N1C(=O)C1CC1 (single isomer, unassigned)",potent
10,"C[C@@H](O)c1nc2c(F)c(-c3cccc(Cl)c3Cl)c(CCC#N)cc2c2c1cc([C@H]1C[C@H](Oc3nccs3)CN1C(=O)C1CC1)n2[C@H]1[C@H]2CN[C@@H]1C2 (single isomer, unassigned) [Example 54, Diastereomer 1 (Peak 1)]",potent
